Experimental data published in US5032575A, “Method for enhancing healing of corneal endothelial wounds” (Eye Research Institute of Retina Foundation, Inc., priority 1989, dated 1991).
Entries after “also recorded” stand apart in the source; their conditions may differ. Read-outs that look alike come from different tables or passages of the source.

What was measured:
[1] = test system: cultured corneal endothelial cells; experiment: Pharmacological regulation of morphology and mitosis in cultured rabbit corneal endothelium (Example 2); format: cell-based
[2] = test system: rabbit corneal endothelial cells; experiment: Cell shape morphometry of confluent cultured rabbit corneal endothelial cells (Example 1); settings: for cell shape at confluence / mean / distribution of the major axes (Amax): cultured seven days; for cell shape at confluence: control cells polygonal; for mean / distribution of the major axes (Amax): control mean 33 μ; for rank order of potency of cyclooxygenase inhibitors on cell shape: effect on cell shape in presence of EGF; for ratio Per/Amax: perimeter / major axis, 3.14 for a perfectly round cell; for potentiation of EGF-induced elongation: 10^-5, equimolar, in presence of EGF
[3] = test system: human corneal endothelial cells; settings: EGF and/or indomethacin; cited from earlier work
[4] = test system: cultured corneal endothelial cells; settings: control cultures and cultures with EGF
[5] = test system: Corneal endothelial cells; experiment: f-actin labelling with rhodamine labelled phallacidin in cultured corneal endothelial cells; settings: 1 week culture; control shows circumferential bands of f-actin
[6] = test system: rabbit corneal endothelial cells; settings: cited from earlier work; for cell shape in first passage cultures (rabbit): EGF and/or indomethacin
[7] = test system: most cell culture systems; settings: cited from earlier work
[8] = test system: intact rabbit corneal endothelium; experiment: Endothelial wound closure in excised rabbit corneas, specular microscopy with morphometric analysis (Example 3)
cat corneal endothelium = settings: 22° C.; cited from earlier work
[9] = test system: Corneal endothelial cells; experiment: Transmission electron microscopy of pharmacologically modulated endothelial phenotypes; settings: cultured cells
[10] = EGF 10 ng/ml, indomethacin 1 μM in M-K medium

Q: What does the source list for `CCCCCCCCCCCCCC(=O)O[C@@H]1[C@@H](C)[C@@]2(O)[C@@H](C=C(CO)C[C@]3(O)C(=O)C(C)=C[C@@H]23)[C@H]2C(C)(C)[C@]12OC(C)=O` [TPA]?
A: cell density / mitosis, agent alone [1]: increased cell density; cell shape (elongation), agent alone [1]: caused elongation; synergy when TPA and EGF both present in the medium [1]: synergistic effects were not noted

Q: Which “cell shape at confluence” value [2] does the source give for `COc1ccc2c(c1)c(CC(=O)O)c(C)n2C(=O)c1ccc(Cl)cc1` [indomethacin] here?
A: elongated at confluence with a stellate shape

Q: And the “mean / distribution of the major axes (Amax)” value [2]?
A: increases

Q: And the “rank order of potency of cyclooxygenase inhibitors on cell shape” value [2]?
A: indomethacin>suprofen>flurbiprofen

Q: And the “ratio Per/Amax” value [2]?
A: 2.6

Q: What about the “cell shape in first passage cultures (human)” value [3] of the same compound?
A: cause elongation

Q: What about the “cellular elongation, INDO added to TPA containing medium” value ([1]; with TPA) of the same compound?
A: marked enhancement of cellular elongation

Q: And the “final cell density, INDO added to TPA containing medium” value ([1]; with TPA)?
A: had no effect on final cell density

Q: What about the “synthesis of PGE2” value [4] of the same compound?
A: totally inhibits

Q: And the f-actin staining pattern [5]?
A: almost completely lacking in individual actin fibers

Q: What about the “cell shape in first passage cultures (rabbit)” value [6] of the same compound?
A: cause elongation

Q: What about the “PGE2 synthesis by cultures of polygonal endothelial cells” value [6] of the same compound?
A: totally inhibited

Q: Which results are given for `C[C@@H]1C[C@H]2[C@@H]3CCC4=CC(=O)C=C[C@]4(C)[C@@]3(F)[C@@H](O)C[C@]2(C)[C@@]1(O)C(=O)CO` [dexamethasone]?
A: potentiation of EGF-induced elongation [2]: has no effect; rank order of potency of cyclooxygenase inhibitors on cell shape [2]: inactivity

Q: With Cholera toxin as the compound, how does the “cell shape (elongation), agent alone” value [1] read?
A: had no effect on cell shape

Q: What about the “effect on EGF and INDO-induced elongation” value [1] of the same compound?
A: antagonized EGF and INDO-induced elongation

Q: What about the “effect on EGF-induced elongation” value [1] of the same compound?
A: EGF-induced elongation did not occur

Q: And the “effect on cell density / mitosis in presence of EGF and INDO” value [1]?
A: without preventing increased cell density

Q: And the “effect on elongation in response to TPA” value [1]?
A: did not prevent elongation in response to TPA

Q: And the “effect on mitogenic effect of EGF” value [1]?
A: potentiated

Q: What about the “effect on mitogenic response to TPA” value [1] of the same compound?
A: potentiate the mitogenic response

Q: With `C=C[C@@]1(C)CC(=O)[C@]2(O)[C@@]3(C)[C@@H](O)CCC(C)(C)[C@@H]3[C@H](O)[C@H](OC(C)=O)[C@@]2(C)O1` [Forskolin] as the compound, how does the “effect on EGF and INDO-induced elongation” value ([1]; added with EGF and INDO) read?
A: prevented EGF and INDO-induced elongation

Q: And the “effect on cell density / mitosis in presence of EGF and INDO” value ([1]; added with EGF and INDO)?
A: inhibited endothelial mitosis

Q: Which “effect on cell shape” value ([2]; added in the absence of EGF, in the presence or absence of indomethacin) does the source give for `CCCCC/C=C\C/C=C\C/C=C\C/C=C\CCCC(=O)O` [arachidonic acid] here?
A: had no effect on cell shape

Q: With epidermal growth factor [EGF] as the compound, how does the “time after addition at which DNA synthesis reaches a maximum” value [7] read?
A: about 22 hours

Q: What about the “time after addition at which increased DNA synthesis begins” value [7] of the same compound?
A: approximately 15 hours

Q: What about the “average percent change of the shape factor relative to control group” value ([8]; 150 minutes after wounding) of the same compound?
A: two times greater

Q: And the “average displacement of cells near the wound boundary” value ([8]; 150 minutes after wounding, control 7 μm)?
A: ~16 μm

Q: What about the “migration of cells near the wound boundary vs control group” value [8, 10] of the same compound?
A: migrated significantly more than those in the control group; also recorded: significantly increased migration of cells near the wound boundary

Q: And the “wound closure time vs control group” value [8, 10]?
A: shortened the wound closure time

Q: And the “time after wounding at which wound area reached maximum” value ([8]; EGF 10 ng/ml, indomethacin 1 μM in M-K medium, 37° C., control 20 minutes)?
A: 10 min

Q: And the “time for wound area to decrease to 50% of the original size” value ([8]; EGF 10 ng/ml, indomethacin 1 μM, control about 240 minutes)?
A: ≤ 120 min

Q: And the “relative average percent change of the shape factor, significance vs control (FIG. 3)” value ([8]; EGF+indomethacin at 50, 100, 150 minutes, EGF at 100 and 150 minutes)?
A: significantly different from the control group

Q: And the “time of peak of the shape change” value ([8]; one cornea per group, control 200 minutes)?
A: 150 min

Q: What about the “wound closed to percent of the original size” value ([8]; within 250 minutes after wounding) of the same compound?
A: 80%

Q: What about the cell density ([2]; compared with cells grown under control conditions) of the same compound?
A: little or no effect on cell density

Q: What about the “cell shape at confluence” value [2] of the same compound?
A: spindle-shaped at confluence

Q: What about the “mean / distribution of the major axes (Amax)” value [2] of the same compound?
A: significantly greater distribution of major axes

Q: And the “ratio Per/Amax” value [2]?
A: decreases significantly

Q: And the “cell shape in first passage cultures (human)” value [3]?
A: cause elongation

Q: What about the “time for association of radiolabeled EGF to be complete” value (cat corneal endothelium) of the same compound?
A: approximately 120 minutes

Q: And the “ultrastructure by transmission electron microscopy” value [9]?
A: Junctional complexes were absent

Q: And the “synthesis of PGE2” value [4]?
A: unaffected

Q: What about the “cell shape in first passage cultures (rabbit)” value [6] of the same compound?
A: cause elongation

Q: And the “shape change in cultured rabbit tissue (April 1986 paper)” value [6]?
A: induce a shape change in the cells that is independent of mitosis

Q: With `CC(C(=O)O)c1ccc(C(=O)c2cccs2)cc1` (stereo not shown) [suprofen] as the compound, how does the “potentiation of EGF-induced elongation” value [2] read?
A: Potentiation of EGF-induced elongation also occurs

Q: And the “rank order of potency of cyclooxygenase inhibitors on cell shape” value [2]?
A: indomethacin>suprofen>flurbiprofen

Q: Which “effect of exogenous PGE2 on elongation in cultures treated with EGF and indomethacin” value ([6]; added with EGF and indomethacin) does the source give for `CCCCC[C@H](O)/C=C/[C@H]1[C@H](O)CC(=O)[C@@H]1C/C=C\CCCC(=O)O` [PGE2, prostaglandin E2] here?
A: blocks elongation

Q: For `CCCCC[C@H](O)/C=C/[C@@H]1[C@@H](C/C=C\CCCC(=O)O)[C@@H](O)C[C@H]1O` [PGF2α], which “effect on elongation of Amax produced by EGF and indomethacin” value ([2]; increasing concentrations/doses added with EGF and indomethacin) is on record?
A: has no effect on the elongation of Amax

Q: Which “rank order of potency of cyclooxygenase inhibitors on cell shape” value [2] does the source give for `CC(C(=O)O)c1ccc(-c2ccccc2)c(F)c1` (stereo not shown) [flurbiprofen] here?
A: indomethacin>suprofen>flurbiprofen
